According to patent publication US6581606B2, “Method, apparatus and system for use in treating patient with a drug having an antineoplastic effect to optimize therapy and prevent an adverse drug response” (The Rx Files Corporation, priority 1999, dated 2003):

Details: human, in vivo
Method: A current dose of Taxol (paclitaxel) is 375 mg.
In this case, the prescriber would use the following information for the patient receiving Taxol: Current Dose 375 mg; Current Marker 660 (a unitless marker indicative of the current platelet count); Desired Marker 1,200 (a unitless marker indicative of where the prescriber wants to see the platelet count raised to); Previous Marker 640 (a unitless marker indicative of the patient's previous ANC).

- Previous Marker (patient's previous ANC): 640
SMILES: CC(=O)O[C@H]1C(=O)[C@@]2(C)[C@H]([C@H](OC(=O)c3ccccc3)[C@]3(O)C[C@H](OC(=O)[C@H](O)[C@@H](NC(=O)c4ccccc4)c4ccccc4)C(C)=C1C3(C)C)[C@]1(OC(C)=O)CO[C@@H]1C[C@@H]2O [Taxol, paclitaxel]
